Assay results from patent US12122761B2, “2-azaspiro[3.4]octane derivatives as M4 agonists” (NOVARTIS AG, priority 2019, dated 2024).

Columns and labels:
[1] = target: T1, human cloned CHRM3 receptor (M3_CHO cells) (Homo sapiens, UniProt P20309); experiment: CHRM3 Ca++ Flux Assay (agonist mode, FDSS 7000EX); assay type: cell-based; conditions: for EC50: agonist mode, geometric mean if tested more than once, read-out: M3 FDSS EC50
T1 construct: expressed in transfected cells; host or cells: CHO-K1
T1 sequence (P20309 whole entry): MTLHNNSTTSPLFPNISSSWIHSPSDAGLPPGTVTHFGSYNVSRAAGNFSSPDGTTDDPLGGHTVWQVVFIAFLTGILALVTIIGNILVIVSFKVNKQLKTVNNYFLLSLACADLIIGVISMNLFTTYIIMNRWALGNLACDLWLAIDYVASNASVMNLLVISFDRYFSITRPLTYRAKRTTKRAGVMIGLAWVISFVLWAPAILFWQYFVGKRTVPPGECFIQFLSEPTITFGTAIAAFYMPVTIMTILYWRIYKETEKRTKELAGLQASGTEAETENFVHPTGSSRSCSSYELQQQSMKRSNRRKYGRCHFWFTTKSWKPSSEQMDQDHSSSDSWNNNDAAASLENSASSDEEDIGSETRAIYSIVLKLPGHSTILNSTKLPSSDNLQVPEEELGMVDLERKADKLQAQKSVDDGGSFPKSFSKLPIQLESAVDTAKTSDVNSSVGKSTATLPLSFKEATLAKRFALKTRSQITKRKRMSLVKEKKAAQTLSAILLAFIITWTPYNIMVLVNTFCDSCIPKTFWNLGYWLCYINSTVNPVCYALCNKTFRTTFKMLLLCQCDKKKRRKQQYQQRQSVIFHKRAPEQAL
Experimental: (§1) The above examples were characterized by measuring the intracellular mobilization of Ca++ ions caused by signaling events mediated by the receptor. The Intra-cellular Calcium flux levels were captured by the highly sensitive Ca++ indicator, Calcium Assay Kit (BD Biosciences, Catalog Number 640178). The fluorescent activity from all receptors were monitored by the fluorescent imager, FDSS 7000EX (Hamamatsu) over a span of 3 minutes.
(§2) CHO-K1 cells stably expressing the human cloned CHRM3 receptor (M3_CHO cells) were grown and maintained in a monolayer culture with F12/HAM (Life Technologies) supplemented with 10% Fetal Bovine Serum, 1× Pen-Strep, and 0.4 mg/mL Geneticin in a humidified atmosphere (5% CO2) at 37° C. The cultures were grown to 80-9 0% confluency in T150 flasks (Corning) and washed with 1×DPBS and lifted with 0.05% Trypsin (Life Technologies). The cells were then spun (1K rpm, 3 minutes) and frozen using Recovery Cell Culture Freezing Media (Gibco Technologies). Cells were stored in liquid nitrogen and thawed a day before the assay. A similar procedure was used for cells stably expressing the human cloned CHRM5 receptor (M5_CHO).
(§3) Prior to the day of the assay, stable M3_CHO or M5_CHO cells were thawed and plated on Greiner 384 well black TC treated plates at 12K cells/well in F12/DMEM supplemented with 10% FBS (Hyclone) and kept overnight in a humidified atmosphere (5% CO2) at 37° C. The next day, cells were loaded with Ca^++ dye (BD Biosciences) using Loading Buffer (HBSS +Ca/+Mg, 20 mM HEPES, 2.5 mM Probenecid) and placed back in cell incubator for a minimum of 1 hour. After incubation, the dye was replaced with Assay Buffer (HBSS −Ca/−Mg, 20 mM HEPES, 2.5 mM Probenecid) and kept at room temperature in the dark before running on cell imager. The FDSS 7000EX (Hamamatsu) was used to acquire Ca^++ traces from cells treated with 11 point dose response of compounds in triplicate in order to generate dose response curves in agonist mode. All compounds were serially diluted in DMSO then prepared in Assay Buffer for Ca^++ flux studies. The dose response curves were generated from the average of triplicate wells obtained from each data point and used a non-linear regression of four parameter dose response algorithm. The Percent Activity (PA) was measured to EC100 of Carbachol.

[2] = target: T2, human cloned CHRM5 receptor (M5_CHO) (Homo sapiens, UniProt P08912); experiment: CHRM5 Ca++ Flux Assay (agonist mode, FDSS 7000EX); assay type: cell-based; conditions: Percent Activity measured to EC100 of Carbachol; read-out: M5 FDSS PA
T2 construct: expressed in transfected cells; host or cells: CHO (M5_CHO)
T2 sequence (P08912 1-532): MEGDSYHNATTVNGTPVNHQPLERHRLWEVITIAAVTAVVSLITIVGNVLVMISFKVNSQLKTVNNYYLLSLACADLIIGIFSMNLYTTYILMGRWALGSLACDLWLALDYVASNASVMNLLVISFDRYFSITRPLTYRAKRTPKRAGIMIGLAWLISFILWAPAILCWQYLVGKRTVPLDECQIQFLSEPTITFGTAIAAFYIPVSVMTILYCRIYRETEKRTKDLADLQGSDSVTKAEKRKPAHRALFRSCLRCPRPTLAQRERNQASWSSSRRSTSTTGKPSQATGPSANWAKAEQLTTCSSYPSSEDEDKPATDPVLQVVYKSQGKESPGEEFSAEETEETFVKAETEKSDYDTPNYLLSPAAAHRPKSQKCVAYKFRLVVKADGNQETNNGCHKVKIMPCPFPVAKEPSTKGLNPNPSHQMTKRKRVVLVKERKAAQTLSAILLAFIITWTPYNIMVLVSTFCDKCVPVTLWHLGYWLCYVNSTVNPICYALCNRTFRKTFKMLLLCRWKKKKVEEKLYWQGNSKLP
Experimental: as §1, §2, §3

[3] = test system: hyperactivity in mice induced by the stimulant d-amphetamine; conditions: general statement on clinically efficacious muscarinic antipsychotics; xanomeline used as positive control (1.0 mg/kg, SC); cited from earlier work
[4] = Percent Activity measured to EC100 of Carbachol

| Structure (SMILES) | M3 FDSS PA [1, 4] [%] | EC50 [1] [µM] | Emax ([1]; Percent Activity measured to EC100 of Carbachol, read-out: M3 FDSS PA) [%] | Emax [2] [%] | activity in the amphetamine induced hyperlocomotion assay [3] |
| --- | --- | --- | --- | --- | --- |
| COc1ccccc1C1CCN([C@H]2CCC3(C2)CN(C(=O)C2COC2)C3)CC1 (single isomer, unassigned) [Example 8C, (S)-(6-(4-(2-methoxyphenyl)piperidin-1-yl)-2-azaspiro[3.4]octan-2-yl)(oxetan-3-yl)methanone or (R)-(6-(4-(2-methoxyphenyl)piperidin-1-yl)-2-azaspiro[3.4]octan-2-yl)(oxetan-3-yl)methanone] | 0 | > 25 |  |  |  |
| COc1ccccc1C1CCN([C@H]2CCC3(C2)CN(C(=O)C2COC2)C3)CC1 (single isomer, unassigned) [Example 8D, (S)-(6-(4-(2-methoxyphenyl)piperidin-1-yl)-2-azaspiro[3.4]octan-2-yl)(oxetan-3-yl)methanone or (R)-(6-(4-(2-methoxyphenyl)piperidin-1-yl)-2-azaspiro[3.4]octan-2-yl)(oxetan-3-yl)methanone] | 0 | > 25 |  |  |  |
| COc1cc(F)ccc1C1CCN([C@@H]2CCC3(C2)CN(C(=O)C2COC2)C3)CC1 [Example 6C, (R)-(6-(4-(4-fluoro-2-methoxyphenyl)piperidin-1-yl)-2-azaspiro[3.4]octan-2-yl)(oxetan-3-yl)methanone] |  |  | 0 | 0 |  |
| CCCCCCOc1nsnc1C1=CCCN(C)C1 [xanomeline] |  |  |  |  | active |
